US10392354B2, “Highly selective anti-cancer agents targeting non-small cell lung cancer and other forms of cancer” (The University of Toledo, priority 2013, dated 2019)

Key:
Type in all cases: cell-based
NCI-H522 cells = assay: lethality / cell viability of NCI-H522 cells; conditions: for lethality / activity on NCI-H522 cell line: concentration not given
Method: FIGS. 5A-5C: The effect of compound 1f on NCI-H522 cells at 10 μM. […] Interval between images shown is 1 hour.
FIGS. 5A-5C show the effects of 1f on NCI-H522 cells at 10 μM.
The effects of compound 2 on NCI-H522 cells, other cancer cells, and normal cell lines were evaluated. […] FIGS. 3A-3C show the effects of compound 2 on tubulin and mitochondrial function.

tubulin = assay: cell staining with antibodies to tubulin in NCI-H522 cells; conditions: in interphase or mitosis
Method: (§1) FIGS. 3A-3C: The effect of compound 2 (10 μM) on tubulin and mitochondrial function. […] Arrowheads: two cells that have lost mitochondrial membrane potential; phase contrast indicates these are dead cells.
(§2) The effects of compound 2 on NCI-H522 cells, other cancer cells, and normal cell lines were evaluated. Compound 2 killed NCI-H522 cells at 10 μM. […] FIGS. 3A-3C show the effects of compound 2 on tubulin and mitochondrial function.

mitochondrial potential = assay: TMRE staining of mitochondrial membrane potential in NCI-H522 cells; conditions: during the death process
Method: as §1, §2

Row | SMILES | lethality / activity on NCI-H522 cell line (NCI-H522 cells) | cell killing of NCI-H522 cells (NCI-H522 cells; 10 μM) | effects on tubulin (tubulin) | mitochondrial membrane potentials (mitochondrial potential)
1 | C#Cc1nc(C2=C(C)C(=O)C(Cc3ccccc3)C2)cs1 (centres unmarked) [Compound 4, 5-benzyl-3-(2-ethynylthiazol-4-yl)-2-methylcyclopent-2-enone] | did not compromise |  |  | 
2 | C#Cc1nc(C2=C(C)C(=O)CC2)cs1 [Compound 3, 3-(2-ethynylthiazol-4-yl)-2-methylcyclopent-2-enone] | lethal |  |  | 
3 | C#Cc1nc(C2=C(C)[C@@H](O)CC2)cs1 [Compound 2] |  | killed | no overt effects | intact until late in the death process
